In US20250171462A1 (NICO Therapeutics, Inc., priority 2022, published 2025):
Where two headings read alike, the source gives them in different places.

Biological target: T1, full-length SARM1 (FL-SARM1) (Homo sapiens, UniProt Q6SZW1)
T1 sequence (Q6SZW1 28-724): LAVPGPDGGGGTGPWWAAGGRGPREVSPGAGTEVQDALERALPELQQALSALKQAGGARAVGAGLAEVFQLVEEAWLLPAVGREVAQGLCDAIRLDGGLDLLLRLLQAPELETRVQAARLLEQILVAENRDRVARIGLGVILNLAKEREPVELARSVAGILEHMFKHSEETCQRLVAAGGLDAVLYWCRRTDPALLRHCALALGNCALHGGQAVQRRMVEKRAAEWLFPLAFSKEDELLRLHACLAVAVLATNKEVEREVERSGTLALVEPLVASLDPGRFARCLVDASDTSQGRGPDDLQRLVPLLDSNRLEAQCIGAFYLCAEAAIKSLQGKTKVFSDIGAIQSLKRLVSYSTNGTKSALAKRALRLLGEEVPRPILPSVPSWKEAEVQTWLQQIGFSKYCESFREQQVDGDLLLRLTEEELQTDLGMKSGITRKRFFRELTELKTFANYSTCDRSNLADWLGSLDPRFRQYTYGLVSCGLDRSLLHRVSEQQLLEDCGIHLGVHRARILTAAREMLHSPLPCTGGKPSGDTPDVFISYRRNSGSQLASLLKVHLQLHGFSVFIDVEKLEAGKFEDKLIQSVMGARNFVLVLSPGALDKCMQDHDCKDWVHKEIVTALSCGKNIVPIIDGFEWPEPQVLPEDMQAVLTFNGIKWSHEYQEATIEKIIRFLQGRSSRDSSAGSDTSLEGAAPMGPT
Test: FL-SARM1 cellular lysate assay (NAD/NADH-Glo detection of remaining NAD+, NMN-activated)

[1] = Activity (μM) (IC50), 11 point curve
[2] = read-out: Activity (IC50 class), 11 point curve
[3] = Activity (IC50 class), 11 point curve

Row | Compound | IC50 [1] [µM] | IC50 [2] [µM] | IC50 [3] [µM]
1 | Cc1ccc(NC(=O)N2C3CCCC2CC3)cc1-c1ccc(F)cn1 [Example 14, N-(3-(5-fluoropyridin-2-yl)-4-methylphenyl)-8-azabicyclo[3.2.1]octane-8-carboxamide] | 0.1 | 0.0001 to 1 | 
2 | Cc1ccc(NC(=O)N2C3CCC2c2c(F)cncc23)cc1-c1ccccn1 (stereo not drawn) [Example 15, 4-fluoro-N-(4-methyl-3-(pyridin-2-yl)phenyl)-5,6,7,8-tetrahydro-5,8-epiminoisoquinoline-9-carboxamide] | 0.4 | 0.0001 to 1 | 
3 | Cc1ccc(NC(=O)N2CC3CCC2c2ccccc23)cc1-c1ccccn1 (stereo not drawn) [Example 16, N-(4-methyl-3-(pyridin-2-yl)phenyl)-1,2,3,4-tetrahydro-1,4-(epiminomethano)naphthalene-10-carboxamide] | 1.1 |  | 1 to 10
4 | Cc1ccc(NC(=O)N2C3CCCC2C3)cc1-c1ccccn1 [Example 17, N-(4-methyl-3-(pyridin-2-yl)phenyl)-6-azabicyclo[3.1.1]heptane-6-carboxamide] | 0.1 | 0.0001 to 1 | 
5 | O=C(Nc1ccc(C(F)(F)F)c(-c2ccccn2)c1)N1C2CCCC1C2 [Example 18, N-(3-(pyridin-2-yl)-4-(trifluoromethyl)phenyl)-6-azabicyclo[3.1.1]heptane-6-carboxamide] | 0.3 | 0.0001 to 1 | 
6 | N#CCc1ccc(NC(=O)N2C3CCCC2C3)cc1-c1ccccn1 [Example 19, N-(4-(cyanomethyl)-3-(pyridin-2-yl)phenyl)-6-azabicyclo[3.1.1]heptane-6-carboxamide] | 0.2 | 0.0001 to 1 | 
7 | O=C(Nc1ccc(Cl)c(-c2ccccn2)c1)N1C2CCCC1C2 [Example 20, N-(4-chloro-3-(pyridin-2-yl)phenyl)-6-azabicyclo[3.1.1]heptane-6-carboxamide] | 0.4 | 0.0001 to 1 | 
8 | Cc1ccc(NC(=O)N2CC3CC2Cc2ccccc23)cc1-c1ccccn1 (stereo not drawn) [Example 21, N-(4-methyl-3-(pyridin-2-yl)phenyl)-4,5-dihydro-1H-1,4-methanobenzo[d]azepine-3(2H)-carboxamide] | 2.5 |  | 1 to 10
9 | Cc1ccc(NC(=O)N2C3CC2C(=O)N(C)C3)cc1-c1ccccn1 (stereo not drawn) [Example 22, 3-methyl-N-(4-methyl-3-(pyridin-2-yl)phenyl)-2-oxo-3,6-diazabicyclo[3.1.1]heptane-6-carboxamide] | 2 |  | 1 to 10
10 | Cc1ccc(NC(=O)N2C3CCCCC2C3)cc1-c1ccccn1 [Example 23, N-(4-methyl-3-(pyridin-2-yl)phenyl)-7-azabicyclo[4.1.1]octane-7-carboxamide] | 0.04 | 0.0001 to 1 | 
11 | Cc1ccc(NC(=O)N2CC3CC2c2ccccc2O3)cc1-c1ccccn1 (stereo not drawn) [Example 24, N-(4-methyl-3-(pyridin-2-yl)phenyl)-2,3-dihydro-2,5-methanobenzo[f][1,4]oxazepine-4(5H)-carboxamide] | 1.4 |  | 1 to 10
12 | Cc1ccc(NC(=O)N2CC(C3CC3)C2)cc1-c1ccccn1 [Example 25, 3-cyclopropyl-N-(4-methyl-3-(pyridin-2-yl)phenyl)azetidine-1-carboxamide] | 6.7 |  | 1 to 10
13 | Cc1ccc(NC(=O)N2C3CCC2c2cnccc23)cc1-c1ccccn1 (stereo not drawn) [Example 26, N-(4-methyl-3-(pyridin-2-yl)phenyl)-5,6,7,8-tetrahydro-5,8-epiminoisoquinoline-9-carboxamide] | 1.3 |  | 1 to 10
14 | Cc1ccc(NC(=O)N2[C@@H]3C[C@@H](F)C[C@H]2C3)cc1-c1ccccn1 [Example 27, cis-3-fluoro-N-(4-methyl-3-(pyridin-2-yl)phenyl)-6-azabicyclo[3.1.1]heptane-6-carboxamide] | 0.1 | 0.0001 to 1 | 
15 | CCc1ccc(NC(=O)N2C3CCCC2C3)cc1-c1ccc(F)cn1 [Example 28, N-(4-ethyl-3-(5-fluoropyridin-2-yl)phenyl)-6-azabicyclo[3.1.1]heptane-6-carboxamide] | 0.6 | 0.0001 to 1 | 
